Measured values reported in US20250282749A1 (Tango Therapeutics, Inc., priority 2022, published 2025).

test system: PRMT5 (SDMA) in HAP1 MTAP-intact cell line; assay: SDMA in-cell western assay, HAP1 MTAP-intact cell line; assay type: cell-based; conditions: Homo sapiens, HAP1 MTAP-intact cell line (endogenous MTAP), read-out: Hap 1 MTAP intact IC50
From the text: (§1) HAP1 MTAP-intact is a cell line in which endogenous levels of MTAP are expressed, and HAP1 MTAP-deleted is an MTAP-null cell line.

Row | SMILES | IC50 [nM]
1 | CC(C)C(=O)N1C[C@H](c2ccc(N3CCN(C)CC3)cc2)N(C(=O)C(=O)Nc2cnc(N)c(C3CC3)c2)C[C@H]1C (racemic) [Compound 4, rac-N-(6-amino-5-cyclopropylpyridin-3-yl)-2-((2R,5S)-4-isobutyryl-5-methyl-2-(4-(4-methylpiperazin-1-yl)phenyl)piperazin-1-yl)-2-oxoacetamide] | > 50
2 | C[C@@H]1CN(C(=O)C(=O)Nc2cncc3cn[nH]c23)[C@@H](c2ccc3scnc3c2)CN1C(=O)C1(C)CC1 (racemic) [Compound 61, 2-oxo-N-(1H-pyrazolo[4,3-c]pyridin-7-yl)-2-[rac-(2S,5R)-2-(1,3-benzothiazol-5-yl)-5-methyl-4-(1-methylcyclopropanecarbonyl)piperazin-1-yl]acetamide] | > 50

test system: HAP1 MTAP-deleted cell line; assay: viability assay for the MTAP-deleted cell line; assay type: cell-based; conditions: not given

Row | SMILES | IC50 [nM]
3 | Cc1cc(NC(=O)C(=O)N2C[C@@H](C)N(C(=O)C(C)(C)C)C[C@@H]2c2ccc(F)cc2)cnc1N (stereo in doubt) [Compound 106, N-(6-amino-5-methylpyridin-3-yl)-2-(2-(4-fluorophenyl)-5-methyl-4-pivaloylpiperazin-1-yl)-2-oxoacetamide] | < 100
4 | Cc1cc(NC(=O)C(=O)N2C[C@@H](C)N(C(=O)C3(C)CC3)C[C@@H]2c2ccc(F)cc2)cnc1N (stereo in doubt) [Compound 108, N-(6-amino-5-methylpyridin-3-yl)-2-(2-(4-fluorophenyl)-5-methyl-4-(1-methylcyclopropanecarbonyl)piperazin-1-yl)-2-oxoacetamide] | < 100

same assay, conditions: Homo sapiens

Row | SMILES | IC50 [nM]
5 | CC(C)C(=O)N1C[C@H](c2ccc(N3CCN(C)CC3)cc2)N(C(=O)C(=O)Nc2cnc(N)c(C3CC3)c2)C[C@H]1C (racemic) [Compound 4, rac-N-(6-amino-5-cyclopropylpyridin-3-yl)-2-((2R,5S)-4-isobutyryl-5-methyl-2-(4-(4-methylpiperazin-1-yl)phenyl)piperazin-1-yl)-2-oxoacetamide] | 100 to 1000
6 | C[C@@H]1CN(C(=O)C(=O)Nc2cncc3cn[nH]c23)[C@@H](c2ccc3scnc3c2)CN1C(=O)C1(C)CC1 (racemic) [Compound 61, 2-oxo-N-(1H-pyrazolo[4,3-c]pyridin-7-yl)-2-[rac-(2S,5R)-2-(1,3-benzothiazol-5-yl)-5-methyl-4-(1-methylcyclopropanecarbonyl)piperazin-1-yl]acetamide] | 100 to 1000
7 | Cc1cc(NC(=O)C(=O)N2C[C@@H](C)N(C(=O)C(C)C)C[C@@H]2c2ccc(F)cc2)cnc1N (racemic) [Compound 157, rac-N-(6-amino-5-methylpyridin-3-yl)-2-(2-(4-fluorophenyl)-4-isobutyryl-5-methylpiperazin-1-yl)-2-oxoacetamide] | 100 to 1000
8 | C[C@@H]1CN(C(=O)C(=O)Nc2cnc(N)c3cn[nH]c23)[C@@H](c2ccccc2)CN1C(=O)C1(C)CC1 (racemic) [Compound 161, N-(4-Amino-1H-pyrazolo[4,3-c]pyridin-7-yl)-2-oxo-2-[rac-(2S,5R)-5-methyl-4-(1-methylcyclopropanecarbonyl)-2-phenyl-piperazin-1-yl]acetamide] | < 100
9 | Cc1cc(NC(=O)C(=O)N2C[C@@H](C)N(C(=O)C(C)C)C[C@@H]2c2ccc(F)cc2)cnc1N (relative stereo) [Compound 20, N-(6-amino-5-methyl-3-pyridyl)-2-[(2S,5R)-2-(4-fluorophenyl)-5-methyl-4-(2-methylpropanoyl)piperazin-1-yl]-2-oxo-acetamide] | 100 to 1000
10 | CC(C)CN1C[C@@H](c2ccc(F)cc2)N(C(=O)C(=O)Nc2cnc(N)c(C3CC3)c2)C[C@@H]1C (single isomer, unassigned) [Compound 26] | > 1000
11 | CC(C)CN1C[C@H](c2ccc(F)cc2)N(C(=O)C(=O)Nc2cnc(N)c(C3CC3)c2)C[C@@H]1C (single isomer, unassigned) [Compound 48] | > 1000
12 | Cc1cc(NC(=O)C(=O)N2CC(C)N(C(=O)C(C)C)C[C@@H]2c2ccc(F)c(F)c2)cnc1N (stereo in doubt) [Compound 23, N-(6-amino-5-methylpyridin-3-yl)-2-((2S,5R)-2-(3,4-difluorophenyl)-4-isobutyryl-5-methylpiperazin-1-yl)-2-oxoacetamide] | > 1000
13 | CC(C)OC(=O)N1C[C@@H](c2ccc(F)cc2)N(C(=O)C(=O)Nc2cnc(N)c(C3CC3)c2)C[C@H]1C (stereo in doubt) [Compound 82, isopropyl 4-(2-((6-amino-5-cyclopropylpyridin-3-yl)amino)-2-oxoacetyl)-5-(4-fluorophenyl)-2-methylpiperazine-1-carboxylate] | > 1000
14 | CC(C)OC(=O)N1C[C@H](c2ccc(F)cc2)N(C(=O)C(=O)Nc2cnc(N)c(C3CC3)c2)C[C@@H]1C (stereo in doubt) [Compound 95, isopropyl 4-(2-((6-amino-5-cyclopropylpyridin-3-yl)amino)-2-oxoacetyl)-5-(4-fluorophenyl)-2-methylpiperazine-1-carboxylate] | > 1000
15 | C[C@@H]1CN(C(=O)C(=O)Nc2cncc3[nH]ncc23)C(c2ccc(F)cc2)CN1C(=O)C(C)(C)C (stereo in doubt) [Compound 103, 2-[(2S,5R)-4-(2,2-dimethylpropanoyl)-2-(4-fluorophenyl)-5-methyl-piperazin-1-yl]-2-oxo-N-(1H-pyrazolo[3,4-c]pyridin-4-yl)acetamide] | > 1000
16 | Cc1cc(NC(=O)C(=O)N2C[C@@H](C)N(C(=O)C(C)(C)C)C[C@@H]2c2ccc(F)cc2)cnc1N [Compound 3, N-(6-amino-5-methylpyridin-3-yl)-2-((2S,5R)-2-(4-fluorophenyl)-5-methyl-4-pivaloylpiperazin-1-yl)-2-oxoacetamide] | < 100
17 | COc1ncc(NC(=O)C(=O)N2C[C@H](C)N(C(=O)C3(C)CC3)C[C@H]2c2ccc(F)cc2)cc1C(N)=O [Compound 5, 5-(2-((2R,5S)-2-(4-fluorophenyl)-5-methyl-4-(1-methylcyclopropanecarbonyl)piperazin-1-yl)-2-oxoacetamido)-2-methoxynicotinamide] | 100 to 1000
18 | Cc1cc(NC(=O)C(=O)N2C[C@@H](C)N(C(=O)C3(C(F)(F)F)CC3)C[C@@H]2c2ccc(F)cc2)cnc1N [Compound 27] | < 100
19 | CC(C)C(=O)N1C[C@H](c2ccccc2)N(C(=O)C(=O)Nc2cnc(N)c3cn[nH]c23)C[C@H]1C [Compound 50] | < 100
20 | C[C@@H]1CN(C(=O)C(=O)Nc2cnc(N)c(C3CC3)c2)[C@@H](c2ccccc2)CN1C(=O)C1(C(F)(F)F)CC1 [Compound 51, N-(6-amino-5-cyclopropylpyridin-3-yl)-2-((2S,5R)-5-methyl-2-phenyl-4-(1-(trifluoromethyl)cyclopropanecarbonyl)piperazin-1-yl)-2-oxoacetamide] | < 100
21 | C[C@H]1CN(C(=O)C(=O)Nc2cnc(N)c(C3CC3)c2)[C@@H](c2ccc(F)cc2)CN1C(=O)CC1CC1 [Compound 56] | > 1000
22 | Cc1cc(NC(=O)C(=O)N2C[C@H](C)N(C(=O)C3(C(F)(F)F)CC3)C[C@H]2c2ccc(F)cc2)cnc1N [Compound 64] | > 1000
23 | COc1ncc(NC(=O)C(=O)N2C[C@@H](C)N(C(=O)C3(C)CC3)C[C@@H]2c2ccc(F)cc2)cc1C(N)=O [Compound 102, 5-(2-((2S,5R)-2-(4-fluorophenyl)-5-methyl-4-(1-methylcyclopropanecarbonyl)piperazin-1-yl)-2-oxoacetamido)-2-methoxynicotinamide] | > 1000
24 | Cc1cc(NC(=O)C(=O)N2C[C@@H](C)N(C(=O)C3(C)CC3)C[C@@H]2c2ccc(F)cc2)cnc1N [Compound 104, N-(6-amino-5-methylpyridin-3-yl)-2-((2S,5R)-2-(4-fluorophenyl)-5-methyl-4-(1-methylcyclopropanecarbonyl)piperazin-1-yl)-2-oxoacetamide] | < 100
25 | C[C@@H]1CN(C(=O)C(=O)Nc2cnc(N)c3cn[nH]c23)[C@@H](c2ccccc2)CN1C(=O)C(C)(C)C [Compound 124, N-(4-amino-1H-pyrazolo[4,3-c]pyridin-7-yl)-2-((2S,5R)-5-methyl-2-phenyl-4-pivaloylpiperazin-1-yl)-2-oxoacetamide] | < 100
26 | C[C@@H]1CN(C(=O)C(=O)Nc2cnc(N)c(C3CC3)c2)[C@H](c2ccc(F)cc2)CN1C(=O)CC1CC1 [Compound 136] | > 1000
27 | C[C@@H]1CN(C(=O)C(=O)Nc2cnc(N)c(C3CC3)c2)[C@@H](c2ccc3scnc3c2)CN1C(=O)C1(C(F)(F)F)CC1 [Compound 141, N-(6-amino-5-cyclopropyl-3-pyridyl)-2-[(2S,5R)-2-(1,3-benzothiazol-5-yl)-5-methyl-4-[1-(trifluoromethyl)cyclopropanecarbonyl]piperazin-1-yl]-2-oxo-acetamide] | < 100
28 | C[C@@H]1CN(C(=O)C(=O)Nc2cnc(N)c3cn[nH]c23)[C@@H](c2ccccc2)CN1C(=O)C1(C(F)(F)F)CC1 [Compound 155] | < 100
29 | CC(C)C(=O)N1C[C@H](c2ccccc2)N(C(=O)C(=O)Nc2cnc(N)c3c2cnn3C)C[C@H]1C [Compound 165, N-(7-Amino-1-methyl-pyrazolo[3,4-c]pyridin-4-yl)-2-oxo-2-[(2S,5R)-5-methyl-4-(2-methylpropanoyl)-2-phenyl-piperazin-1-yl]acetamide] | < 100
30 | C[C@@H]1CN(C(=O)C(=O)Nc2cnc(N)c3c2cnn3C)[C@@H](c2ccccc2)CN1C(=O)C1(C(F)(F)F)CC1 [Compound 166, N-(7-Amino-1-methyl-pyrazolo[3,4-c]pyridin-4-yl)-2-oxo-2-[(2S,5R)-5-methyl-2-phenyl-4-[1-(trifluoromethyl)cyclopropanecarbonyl]piperazin-1-yl]acetamide] | < 100
31 | CC(=O)N1C[C@H](c2ccccc2)N(C(=O)C(=O)Nc2cnc(N)c3c2cnn3C)C[C@H]1C [Compound 168, N-(7-Amino-1-methyl-pyrazolo[3,4-c]pyridin-4-yl)-2-oxo-2-[(2S,5R)-4-acetyl-5-methyl-2-phenyl-piperazin-1-yl]acetamide] | < 100

test system: PRMT5 (SDMA) in HAP1 MTAP-deleted cell line; assay: SDMA in-cell western assay, HAP1 MTAP-deleted cell line; assay type: cell-based; conditions: Homo sapiens; SDMA in-cell western, HAP1 MTAP-deleted (MTAP-null) cell line
From the text: as §1

Row | SMILES | IC50 [nM] | IC90 [nM]
32 | CC(C)C(=O)N1C[C@H](c2ccc(N3CCN(C)CC3)cc2)N(C(=O)C(=O)Nc2cnc(N)c(C3CC3)c2)C[C@H]1C (racemic) [Compound 4, rac-N-(6-amino-5-cyclopropylpyridin-3-yl)-2-((2R,5S)-4-isobutyryl-5-methyl-2-(4-(4-methylpiperazin-1-yl)phenyl)piperazin-1-yl)-2-oxoacetamide] | 5 to 50 | > 125
33 | C[C@@H]1CN(C(=O)C(=O)Nc2cncc3cn[nH]c23)[C@@H](c2ccc3scnc3c2)CN1C(=O)C1(C)CC1 (racemic) [Compound 61, 2-oxo-N-(1H-pyrazolo[4,3-c]pyridin-7-yl)-2-[rac-(2S,5R)-2-(1,3-benzothiazol-5-yl)-5-methyl-4-(1-methylcyclopropanecarbonyl)piperazin-1-yl]acetamide] | 5 to 50 | 75 to 125

same assay, conditions: ratio of SDMA in-cell western IC50 in HAP1 MTAP-intact to IC50 in HAP1 MTAP-deleted cell line

Row | SMILES | Hap1 MTAP intact/deleted ratio
34 | CC(C)C(=O)N1C[C@H](c2ccc(N3CCN(C)CC3)cc2)N(C(=O)C(=O)Nc2cnc(N)c(C3CC3)c2)C[C@H]1C (racemic) [Compound 4, rac-N-(6-amino-5-cyclopropylpyridin-3-yl)-2-((2R,5S)-4-isobutyryl-5-methyl-2-(4-(4-methylpiperazin-1-yl)phenyl)piperazin-1-yl)-2-oxoacetamide] | C (an IC50 ratio of less than 15 fold)
35 | C[C@@H]1CN(C(=O)C(=O)Nc2cncc3cn[nH]c23)[C@@H](c2ccc3scnc3c2)CN1C(=O)C1(C)CC1 (racemic) [Compound 61, 2-oxo-N-(1H-pyrazolo[4,3-c]pyridin-7-yl)-2-[rac-(2S,5R)-2-(1,3-benzothiazol-5-yl)-5-methyl-4-(1-methylcyclopropanecarbonyl)piperazin-1-yl]acetamide] | C (an IC50 ratio of less than 15 fold)
36 | CC(C)C(=O)N1C[C@H](c2ccc(F)cc2)N(C(=O)C(=O)Nc2cnc(N)c(C3CC3)c2)C[C@H]1C [Compound 19] | C (an IC50 ratio of less than 15 fold)
